# In patent US20190247353A1, “ACNE STRAIN-SELECTIVE ANTIBACTERIAL AGENT” (MOMOTANI JUNTENKAN CO., LTD., priority 2016, published 2019):
# Like-named read-outs stand apart in the source and are kept apart here.
# Legend:
# Format in all cases: cell-based, Propionibacterium acnes
# [1] = test system: HL053PA1 strain (RT4); test: MIC by broth microdilution method, HL053PA1 strain; conditions: for MIC: Cutibacterium acnes
# Experimental: (§1) An MIC is measured herein according to the broth microdilution method which is the standard method of Japanese Society of Chemotherapy.
# (§2) The antibacterial activity of a test substance was determined based on the minimum inhibitory concentration (MIC). An MIC was measured according to the broth microdilution method which is the standard method of Japanese Society of Chemotherapy.
# (§3) One-loopful of each acne bacterium strain listed in Table 1 was scraped off and inoculated into 5 mL of a GAM broth slant agar medium (pH 7.0, Nissui Pharmaceutical Co., Ltd.).
# (§4) The inoculated acne bacterium strain was precultured at 37° C. in a nitrogen atmosphere (anaerobic condition) for 48 hours. The precultured microbial cells were diluted in a modified GAM broth liquid medium (pH 6.0) to a concentration of 5.0×10^4 cfu/mL (viable cell count per OD660=1 is 2.0×10^9 cfu/mL), to prepare strain suspensions.
# (§5) Each fatty acid (Tokyo Chemical Industry Co., Ltd.) listed in Table 2 was dissolved in dimethylsulfoxide (DMSO) as a solvent such that the concentration became 10,000 μg/mL, and used as a test substance.
# (§6) Each of strain suspensions (5.0×10^4 cfu/mL) was aliquoted in a 96-well round bottom microplate, each of the test substance (fatty acid concentration 10,000 μg/mL) was added at a 1/10 volume to the aliquot and mixed to prepare measurement samples (fatty acid concentration: 1,000 μg/mL). Measurement samples in 2-fold dilution series were prepared using the strain suspension (fatty acid concentration from 0.48 to 1,000 μg/mL).
# (§7) […] The presence or absence of a precipitation of test microbial cells after the incubation was examined and the minimum concentration at which the precipitation of microbial cells […] was regarded as the MIC (μg/mL) of the test substance against the acne bacterium strain.
# [2] = test system: HL043PA1 strain (RT5); test: MIC by broth microdilution method, HL043PA1 strain; conditions: for MIC: Cutibacterium acnes
# Experimental: as §1, §2, §3
# The inoculated acne bacterium strain was precultured at 37° C. in a nitrogen atmosphere (anaerobic condition) for 48 hours. […]
# as §5, §6
# The measurement samples were incubated under an anaerobic condition at 37° C. for 2 days. The presence or absence of a precipitation of test microbial cells after the incubation was examined and the minimum concentration at which the precipitation of microbial cells […] was regarded as the MIC (μg/mL) of the test substance against the acne bacterium strain.
# [3] = test system: HL110PA3 strain (RT6); test: MIC by broth microdilution method, HL110PA3 strain; conditions: for MIC: Cutibacterium acnes
# Experimental: as §1, §2, §3, §4, §5, §6, §7
# [4] = test system: HL053PA1 strain (RT4) and HL043PA1 strain (RT5) versus HL110PA3 strain (RT6); test: Strain-selective antibacterial activity (average of MICRT6/MICRT4 and MICRT6/MICRT5)
# Text: Herein, “acne strain-selective antibacterial activity” or “strain-selective antibacterial activity” means an index indicating better inhibition of growth of a dominant strain in acne patients compared to that of a dominant strain in healthy subjects. It is expressed by the average value of the values (MICRT6/MICRT4, and MICRT6/MICRTS) obtained by dividing the minimum inhibitory concentration (MIC) of an object substance with respect to the dominant strain in healthy subjects (RT6 strain) (MICRT6) respectively by the MIC of the object substance with respect to the dominant strain in acne patients (RT4 strain) (MICRT4), and by the MIC of the object substance with respect to the dominant strain in acne patients (RT5 strain) (MICRT5).
# The strain-selective antibacterial activity of each test substance (Table 2, right-most column) was evaluated based on the following rating criteria (Table 3). When the strain-selective antibacterial activity is indicated by a numerical range, the rating was based on the minimum value thereof.
# [5] = test system: HL110PA3 strain (RT6); test: MIC by broth microdilution method, HL110PA3 strain; conditions: Cutibacterium acnes; monoacylglycerols, Example 3, method as Example 1; read-out: MIC against acne bacterium strain HL110PA3 strain (RT6)
# [6] = 48 h, pH 6.0 modified GAM broth, anaerobic, 37° C., 2 days (Example 1), read-out: MIC against acne bacterium strain HL053PA1 strain (RT4)
# [7] = 48 h, pH 6.0 modified GAM broth, anaerobic, 37° C., 2 days (Example 1), read-out: MIC against acne bacterium strain HL043PA1 strain (RT5)
# [8] = 48 h, pH 6.0 modified GAM broth, anaerobic, 37° C., 2 days (Example 1), read-out: MIC against acne bacterium strain HL110PA3 strain (RT6)
# [9] = control antibacterial agents, Comparative Example 1
# [10] = monoacylglycerols, Example 3, method as Example 1
# [11] = control antibacterial agents, Comparative Example 1, method as Example 1
structure (smiles),measurement,setting,value
"CCCCCCCCCCCC(=O)O [Lauric acid (C12:0), Lauric acid, reference compound]",MIC,[1]; [6],15.6 µg/mL
same,MIC,[2]; [7],31.3 µg/mL
same,MIC,[3]; [8],15.6 µg/mL
"CCCCCCCCCCC(=O)O [Undecanoic acid (C11:0), Undecanoic acid, reference compound]",MIC,[1]; [6],15.6 µg/mL
same,MIC,[2]; [7],15.6 µg/mL
same,MIC,[3]; [8],15.6 µg/mL
same,Strain-selective antibacterial activity,[4]; pH 6.0 (Example 1),1.0
"CCCCCCCCCCCCC(=O)O [Tridecanoic acid (C13:0), Tridecanoic acid, reference compound]",MIC,[1]; [6],15.6 µg/mL
same,MIC,[2]; [7],31.3 µg/mL
same,MIC,[3]; [8],15.6 µg/mL
same,Strain-selective antibacterial activity,[4]; pH 6.0 (Example 1),0.75
"Oc1cc(Cl)ccc1Oc1ccc(Cl)cc1Cl [Triclosan, reference compound]",MIC,[1]; read-out: MIC against acne bacterium strain HL053PA1 strain (RT4),0.975 µg/mL
same,MIC,[2]; read-out: MIC against acne bacterium strain HL043PA1 strain (RT5),1.95 µg/mL
same,MIC,[3]; read-out: MIC against acne bacterium strain HL110PA3 strain (RT6),3.9 µg/mL
same,Strain-selective antibacterial activity,[4]; [9],3.0
"CCCCCCCCCCCCCCCCCC(=O)O [Stearic acid (C18:0), Stearic acid]",MIC,[1]; [6],> 1000 µg/mL
same,MIC,"[1]; 72 h, pH 5.0, estimated from the growth on day 3, read-out: MIC against acne bacterium strain HL053PA1 strain (RT4)",> 1000 µg/mL
same,MIC,"[1]; pH 5.5, read-out: MIC against acne bacterium strain HL053PA1 strain (RT4)",> 1000 µg/mL
same,MIC,"[1]; pH 6.5, read-out: MIC against acne bacterium strain HL053PA1 strain (RT4)",> 1000 µg/mL
same,MIC,"[1]; pH 7.0, read-out: MIC against acne bacterium strain HL053PA1 strain (RT4)",62.5 µg/mL
same,MIC,[2]; [7],> 1000 µg/mL
same,MIC,"[2]; 72 h, pH 5.0, estimated from the growth on day 3, read-out: MIC against acne bacterium strain HL043PA1 strain (RT5)",> 1000 µg/mL
same,MIC,"[2]; pH 6.5, read-out: MIC against acne bacterium strain HL043PA1 strain (RT5)",> 1000 µg/mL
same,MIC,"[2]; pH 7.0, read-out: MIC against acne bacterium strain HL043PA1 strain (RT5)",31.3 µg/mL
same,MIC,[3]; [8],> 1000 µg/mL
same,MIC,"[3]; 72 h, pH 5.5, estimated from the growth on day 3, read-out: MIC against acne bacterium strain HL110PA3 strain (RT6)",> 1000 µg/mL
same,MIC,"[3]; 96 h, pH 5.0, estimated from the growth on day 4, read-out: MIC against acne bacterium strain HL110PA3 strain (RT6)",> 1000 µg/mL
same,MIC,"[3]; pH 6.5, read-out: MIC against acne bacterium strain HL110PA3 strain (RT6)",> 1000 µg/mL
same,MIC,"[3]; pH 7.0, read-out: MIC against acne bacterium strain HL110PA3 strain (RT6)",1000 µg/mL
same,Strain-selective antibacterial activity,[4]; pH 7.0,24
same,Strain-selective antibacterial activity at each pH,[4]; pH 7 (summary Table 10),24
"CCCCCCCCC(=O)O [Nonanoic acid (C9:0), Nonanoic acid, reference compound]",MIC,[1]; [6],500 µg/mL
same,MIC,[2]; [7],250 µg/mL
same,MIC,[3]; [8],250 µg/mL
same,Strain-selective antibacterial activity,[4]; pH 6.0 (Example 1),0.75
CCCCCCCCCCCCCCCCCC(=O)OCC(O)CO (stereo not shown) [Monostearin],MIC,"[1]; monoacylglycerols, Example 3, method as Example 1, read-out: MIC against acne bacterium strain HL053PA1 strain (RT4)",> 1000 µg/mL
same,MIC,"[2]; monoacylglycerols, Example 3, method as Example 1, read-out: MIC against acne bacterium strain HL043PA1 strain (RT5)",> 1000 µg/mL
same,MIC,[5],> 1000 µg/mL
"CCCCCC/C=C\CCCCCCCC(=O)O [Palmitoleic acid (C16:1), Palmitoleic acid, reference compound]",MIC,[1]; [6],31.3 µg/mL
same,MIC,[2]; [7],7.81 µg/mL
same,MIC,[3]; [8],15.6 µg/mL
same,Strain-selective antibacterial activity,[4]; pH 6.0 (Example 1),1.2
"CCCCCC(=O)O [Caproic acid (C6:0), Caproic acid, reference compound]",MIC,"[1]; 48 h, pH 6, read-out: MIC against acne bacterium strain HL053PA1 strain (RT4)",62.5 µg/mL
same,MIC,"[2]; 48 h, pH 6, read-out: MIC against acne bacterium strain HL043PA1 strain (RT5)",62.5 µg/mL
same,MIC,"[3]; 48 h, pH 6, read-out: MIC against acne bacterium strain HL110PA3 strain (RT6)",62.5 µg/mL
same,Strain-selective antibacterial activity,[4]; pH 6.0 (Example 1),1.0
CCCCCCCCCCCCCCC(=O)OCC(O)CO (stereo not shown) [Monopentadecanoin],MIC against acne bacterium strain HL053PA1 strain (RT4),[1]; [10],15.6 µg/mL
same,MIC against acne bacterium strain HL043PA1 strain (RT5),[2]; [10],7.81 µg/mL
same,MIC against acne bacterium strain HL110PA3 strain (RT6),[3]; [10],62.5 µg/mL
same,Strain-selective antibacterial activity,"[4]; monoacylglycerols, Example 3",6.0
CCCCCCCCCCCCCC(=O)OCC(O)CO (stereo not shown) [Monomyristin],MIC against acne bacterium strain HL053PA1 strain (RT4),[1]; [10],500 µg/mL
same,MIC against acne bacterium strain HL043PA1 strain (RT5),[2]; [10],500 µg/mL
same,MIC against acne bacterium strain HL110PA3 strain (RT6),[3]; [10],>1000 µg/mL
same,Strain-selective antibacterial activity,"[4]; monoacylglycerols, Example 3",>2.0
"CCCCCCCC/C=C\CCCCCCCC(=O)O [Oleic acid (C18:1), Oleic acid]",MIC,[1]; [6],500 µg/mL
same,MIC,[2]; [7],62.5 µg/mL
same,MIC,[3]; [8],> 1000 µg/mL
same,Strain-selective antibacterial activity,[4]; pH 6.0 (Example 1),>9.0
same,Strain-selective antibacterial activity at each pH,[4]; pH 6 (summary Table 10),>9
CCCCCCCCCCCCCCCC(=O)OCC(O)CO (stereo not shown) [Monopalmitin],MIC against acne bacterium strain HL053PA1 strain (RT4),[1]; [10],250 µg/mL
same,MIC against acne bacterium strain HL043PA1 strain (RT5),[2]; [10],31.3 µg/mL
same,MIC against acne bacterium strain HL110PA3 strain (RT6),[3]; [10],1000 µg/mL
same,Strain-selective antibacterial activity,"[4]; monoacylglycerols, Example 3",18
"CCCCCCCCCC(=O)O [Capric acid (C10:0), Capric acid, reference compound]",MIC,[1]; [6],500 µg/mL
same,MIC,[2]; [7],500 µg/mL
same,MIC,[3]; [8],250 µg/mL
same,Strain-selective antibacterial activity,[4]; pH 6.0 (Example 1),0.50
Cc1cc(O)ccc1C(C)C [reference compound],MIC against acne bacterium strain HL053PA1 strain (RT4),[1]; [11],125 µg/mL
same,MIC against acne bacterium strain HL043PA1 strain (RT5),[2]; [11],125 µg/mL
same,MIC against acne bacterium strain HL110PA3 strain (RT6),[3]; [11],62.5 µg/mL
same,Strain-selective antibacterial activity,[4]; [9],0.50
"CCCCCCC(=O)O [Heptanoic acid (C7:0), Heptanoic acid, reference compound]",MIC,[1]; [6],125 µg/mL
same,MIC,[2]; [7],125 µg/mL
same,MIC,[3]; [8],125 µg/mL
same,Strain-selective antibacterial activity,[4]; pH 6.0 (Example 1),1.0
"CCCCCCCC(=O)O [Caprylic acid (C8:0), Caprylic acid, reference compound]",MIC,[1]; [6],250 µg/mL
same,MIC,[2]; [7],250 µg/mL
same,MIC,[3]; [8],125 µg/mL
same,Strain-selective antibacterial activity,[4]; pH 6.0 (Example 1),0.50
